The target of the assay is T1, human FFAR1 (GPR40) (Homo sapiens, UniProt O14842).
T1 construct: Flag; expressed in transfected cells; host or cells: HEK293T
The experiment in a line: NFAT-RE-based reporter gene activity assay (Dual-Glo luciferase) for GPR40 agonistic activity in co-transfected HEK293T cells. The format is cell-based. Conditions: 4-hour treatment. The method in brief: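 HEK293T cells co-transfected with human FFAR1, NFAT-RE firefly luciferase and TK-Renilla plasmids; 24 h later treated 4 h with 10 half-log compound dilutions from 1 µM. Firefly/Renilla ratio normalised to DMSO; EC50 from four-parameter fit.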

Experimental findings from patent EP4682145A1, “BENZOHETEROCYCLIC COMPOUND, AND PREPARATION METHOD THEREFOR AND USE THEREOF” (Cascade Pharmaceuticals, Inc., priority 2023, dated 2024) are described below.

Where only a bound is given, the exact number is not on record here.

T1 sequence (O14842 whole entry): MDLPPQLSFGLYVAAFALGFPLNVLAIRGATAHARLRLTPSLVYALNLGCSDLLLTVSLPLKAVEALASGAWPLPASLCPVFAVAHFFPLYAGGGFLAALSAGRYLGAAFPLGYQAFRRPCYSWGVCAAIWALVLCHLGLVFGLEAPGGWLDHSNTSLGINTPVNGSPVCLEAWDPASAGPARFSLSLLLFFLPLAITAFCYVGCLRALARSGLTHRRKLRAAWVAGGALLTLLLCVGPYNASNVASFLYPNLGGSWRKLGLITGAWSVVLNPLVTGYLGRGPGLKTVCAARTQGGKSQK

Consider `COc1cccc(N2CCC(c3oc4cc([C@@H](CC(=O)O)C5CC5)ccc4c3C(=O)Nc3ccccc3F)CC2)c1` [Compound 234], for which the EC50 was not above 10 nM. Also, for the setting “class symbols”, the “Efficacy (%)” value was “†† (150 ≥ Efficacy (%) > 100)”. Compound `CC(c1ccccc1OC(F)(F)F)N1CCC(c2oc3cc(C(CC(=O)O)C4CC4)ccc3c2C(=O)Nc2ccccc2F)CC1` (centres unmarked) [Compound 327] displayed an EC50 of 100 to 500 nM. Further, the “Efficacy (%)” value (class symbols) is recorded as “†† (150 ≥ Efficacy (%) > 100)”. `COc1cccc(N2CCC(c3oc4cc([C@@H](CC(=O)O)C5CC5)ccc4c3C(=O)N(C)c3cc(C(F)(F)F)ccc3Cl)CC2)c1` [Compound 281]: the EC50 is 100 to 500 nM. In addition, where the note is “class symbols”, the “Efficacy (%)” value was “†† (150 ≥ Efficacy (%) > 100)”. In the same order, the values of `COc1cccc(N2CCC(c3oc4cc([C@@H](CC(=O)O)C5CC5)ccc4c3-c3ccc4ccccc4n3)CC2)c1` [Compound 154] are 100 to 500 nM and “††† (Efficacy (%) > 150)”. `COc1cccc(N2CCC(c3oc4cc([C@@H](CC(=O)O)C5CC5)ccc4c3C(=O)NC34CC5CC(C)(CC(C)(C5)C3)C4)CC2)c1` [Compound 354] displayed an EC50 of 100 to 500 nM. Moreover, under “class symbols”, the “Efficacy (%)” value is “†† (150 ≥ Efficacy (%) > 100)”. For `COc1cccc(N2CCC(c3oc4cc([C@@H](CC(=O)O)C5CC5)ccc4c3C(=O)N(C)c3cc([N+](=O)[O-])ccc3Cl)CC2)c1` [Compound 274] the same measures were 100 to 500 nM and “†† (150 ≥ Efficacy (%) > 100)”.

The compound `CC(C)(C)n1cc(-c2c(C3CCN(c4cccc(C5CC5)c4)CC3)oc3cc(C(CC(=O)O)C4CC4)ccc23)cn1` (centres unmarked) [Compound 45] had an EC50 of 100 to 500 nM. For the same compound, under “class symbols”, the “Efficacy (%)” value is “†† (150 ≥ Efficacy (%) > 100)”.

`CC(C)(C)c1ccc(-c2c(C3CCN(c4ccc5c(c4)OCC5)CC3)oc3cc(C(CC(=O)O)C4CC4)ccc23)cc1` (centres unmarked) [Compound 208]: the EC50 lay within 100 to 500 nM. Also, where the note is “class symbols”, the “Efficacy (%)” value was “††† (Efficacy (%) > 150)”. `COc1ccc(F)c(N2CCC(c3oc4cc(C(CC(=O)O)C5CC5)ccc4c3-c3cccc(N4CCCC4(C)C)c3)CC2)c1` (centres unmarked) [Compound 192] had an EC50 of 100 to 500 nM. Also, the “Efficacy (%)” value (class symbols) is listed as “†† (150 ≥ Efficacy (%) > 100)”. `COc1cccc(-c2c(C3CCN(c4cccc(OC)c4)CC3)oc3cc(C(CC(=O)O)C4CC4)ccc23)c1` (centres unmarked) [Compound 29] registered an EC50 of 100 to 500 nM. Further, the “Efficacy (%)” value (class symbols) is listed as “†† (150 ≥ Efficacy (%) > 100)”.

`COc1cccc(N2CCC(c3oc4cc([C@@H](CC(=O)O)C5CC5)ccc4c3CNC(=O)C(C)(C)C)CC2)c1` [Compound 436] registered an EC50 of more than 500 nM. The “Efficacy (%)” value (class symbols) is listed as “†† (150 ≥ Efficacy (%) > 100)”. In the case of `COc1ccc(Cl)c(N2CCC(c3oc4cc(C(CC(=O)O)C5CC5)ccc4c3-c3cccc(C(C)(C)C)c3)CC2)c1` (centres unmarked) [Compound 203], the EC50 lay within 100 to 500 nM. For the same compound, the “Efficacy (%)” value (class symbols) is reported as “† (100 ≥ Efficacy (%) > 50)”. For `COc1ccc(F)c(N2CCC(c3oc4cc(C(CC(=O)O)C5CC5)ccc4c3-c3ccc(C(=O)N(C)CC(C)(C)C)cc3)CC2)c1` (centres unmarked) [Compound 202] the same measures were 100 to 500 nM and “†† (150 ≥ Efficacy (%) > 100)”. As for `COc1ccc(F)c(N2CCC(c3oc4cc(C(CC(=O)O)C5CC5)ccc4c3C3=CCC(C(C)(C)C)CC3)CC2)c1` (centres unmarked) [Compound 380], the EC50 is more than 500 nM. Besides, under “class symbols”, the “Efficacy (%)” value was “†† (150 ≥ Efficacy (%) > 100)”. As to `Cc1cc(OCCCS(C)(=O)=O)cc(C)c1-c1cccc(COc2ccc3c(c2)OC[C@H]3CC(=O)O)c1` [TAK875, reference compound], the “Efficacy (%)” value (numeric values of positive controls) is 65%. `COc1cccc(N2CCC(c3oc4cc(C(CC(=O)O)C5CC5)ccc4c3-c3cc(C(C)(C)C)no3)CC2)c1` (centres unmarked) [Compound 115] gave an EC50 not above 10 nM. In addition, the “Efficacy (%)” value (class symbols) is “†† (150 ≥ Efficacy (%) > 100)”. As to `COc1cccc(N2CCC(c3oc4cc([C@@H](CC(=O)O)C5CC5)ccc4c3-c3nnc(C(C)(C)C)o3)CC2)c1` [Compound 125], the EC50 fell in the range of 10 to 100 nM. Besides, the “Efficacy (%)” value (class symbols) was “†† (150 ≥ Efficacy (%) > 100)”. `COc1cccc(N2CCC(c3oc4cc(C(CC(=O)O)C5CC5)ccc4c3-c3nnc(C(C)(C)C(F)(F)F)o3)CC2)c1` (centres unmarked) [Compound 126] returned an EC50 of 10 to 100 nM. Under “class symbols”, the “Efficacy (%)” value was “†† (150 ≥ Efficacy (%) > 100)”. In the case of `CCc1ccc(Cl)c(NC(=O)c2c(C3CCN(c4ccc5c(c4)OCO5)CC3)oc3cc([C@@H](CC(=O)O)C4CC4)ccc23)c1` [Compound 337], the concentration for a half-maximal effect (EC50) is not above 10 nM. Besides, for the setting “class symbols”, the “Efficacy (%)” value is listed as “†† (150 ≥ Efficacy (%) > 100)”. In the same order, the values of `COc1cccc(N2CCC(c3oc4cc([C@@H](CC(=O)O)C5CC5)ccc4c3C(=O)Nc3ccccc3-c3ccccc3)CC2)c1` [Compound 241] are 100 to 500 nM and “†† (150 ≥ Efficacy (%) > 100)”.

Consider `COc1cccc(N2CCC(c3oc4cc([C@@H](CC(=O)O)C5CC5)ccc4c3-c3cnc(C(C)C)s3)CC2)c1` [Compound 102], for which the EC50 fell in the range of 10 to 100 nM. For the same compound, the “Efficacy (%)” value (class symbols) is “†† (150 ≥ Efficacy (%) > 100)”.

Compound `COc1cccc(N2CCC(c3oc4cc([C@@H](CC(=O)O)C5CC5)ccc4c3C(=O)Nc3cc(C4CC4)ccc3Cl)CC2)c1` [Compound 279] yielded an EC50 of more than 500 nM. Further, the “Efficacy (%)” value (class symbols) is “†† (150 ≥ Efficacy (%) > 100)”. For `CNc1cccc(N2CCC(c3oc4cc(C(CC(=O)O)C5CC5)ccc4c3-c3ccc(C(C)(C)C)cc3)CC2)c1` (centres unmarked) [Compound 24] the same measures were 100 to 500 nM and “† (100 ≥ Efficacy (%) > 50)”. In turn, `COc1cccc(N2CCC(c3oc4cc(C(CC(=O)O)C5CC5)ccc4c3C(=O)N3CCCC3)CC2)c1` (centres unmarked) [Compound 358] came in with an EC50 of 100 to 500 nM. For the setting “class symbols”, the “Efficacy (%)” value is listed as “† (100 ≥ Efficacy (%) > 50)”. `COc1ccc(F)c(N2CCC(c3oc4cc(C(CC(=O)O)C5CC5)ccc4c3-c3cccc(F)c3)CC2)c1` (centres unmarked) [Compound 178] registered an EC50 of 100 to 500 nM. Further, under “class symbols”, the “Efficacy (%)” value was “†† (150 ≥ Efficacy (%) > 100)”. `COc1cccc(N2CCC(c3oc4cc(C(CC(=O)O)C5CC5)ccc4c3C(=O)Nc3cccc(Cl)c3)CC2)c1` (centres unmarked) [Compound 248] had a concentration for a half-maximal effect (EC50) of 100 to 500 nM. Further, the “Efficacy (%)” value (class symbols) is given as “†† (150 ≥ Efficacy (%) > 100)”. In the same order, the values of `COc1cccc(N2CCC(c3oc4cc([C@@H](CC(=O)O)C5CC5)ccc4c3-c3nnc(C(C)(C)C)o3)CC2)c1F` [Compound 141] are not above 10 nM and “††† (Efficacy (%) > 150)”. For `COc1ccc(C(=O)Nc2cccc(C)n2)c(N2CCC(c3oc4cc(C(CC(=O)O)C5CC5)ccc4c3-c3cnn(C(C)(C)C)c3)CC2)c1` (centres unmarked) [Compound 94] the same measures were 100 to 500 nM and “† (100 ≥ Efficacy (%) > 50)”. For `COc1ccc(F)c(N2CCC(c3oc4cc([C@@H](CC(=O)O)C5CC5)ccc4c3-c3ccc(C)cc3)CC2)c1` [Compound 161] the same measures were 100 to 500 nM and “† (100 ≥ Efficacy (%) > 50)”. As to `COc1ccc(F)c(N2CCC(c3oc4cc([C@@H](CC(=O)O)C5CC5)ccc4c3-c3nnc(C(C)(C)C)o3)CC2)c1` [Compound 142], the EC50 lay within 100 to 500 nM. The “Efficacy (%)” value (class symbols) is “†† (150 ≥ Efficacy (%) > 100)”. Take `COc1cccc(N2CCC(c3oc4cc([C@@H](CC(=O)O)C5CC5)ccc4c3C(OCC(C)C)c3cccc(C)c3)CC2)c1` (some centres unmarked) [Compound 428]: the EC50 fell in the range of 100 to 500 nM. Where the note is “class symbols”, the “Efficacy (%)” value is “†† (150 ≥ Efficacy (%) > 100)”.

As to `COc1ccc(F)c(N2CCC(c3oc4cc(C(CC(=O)O)C5CC5)ccc4c3-c3ccccc3C)CC2)c1` (centres unmarked) [Compound 159], the EC50 is 100 to 500 nM. For the same compound, under “class symbols”, the “Efficacy (%)” value is “†† (150 ≥ Efficacy (%) > 100)”. As to `COc1ccc(F)c(N2CCC(c3oc4cc(C(CC(=O)O)C5CC5)ccc4c3C(=O)Nc3ccccc3)CC2)c1` (centres unmarked) [Compound 314], the EC50 lay within 100 to 500 nM. In addition, the “Efficacy (%)” value (class symbols) is given as “†† (150 ≥ Efficacy (%) > 100)”. Take `COc1cccc(N2CCC(c3oc4cc(C(CC(=O)O)C5CC5)ccc4c3C(=O)NC3C4CC5CC(C4)CC3C5)CC2)c1` (centres unmarked) [Compound 352]: the EC50 was in the range of 10 to 100 nM. Moreover, the “Efficacy (%)” value (class symbols) was “†† (150 ≥ Efficacy (%) > 100)”. With `COc1cccc(N2CCC(c3oc4cc([C@@H](CC(=O)O)C5CC5)ccc4c3C(C)OCC(C)(C)C)CC2)c1` (some centres unmarked) [Compound 411], the EC50 was in the range of 10 to 100 nM. In addition, for the setting “class symbols”, the “Efficacy (%)” value is “†† (150 ≥ Efficacy (%) > 100)”.

In turn, `COc1cccc(N2CCC(c3oc4cc([C@@H](CC(=O)O)C5CC5)ccc4c3-c3ccc(OC(C)C)cc3)CC2)c1` [Compound 33] displayed an EC50 of 10 to 100 nM. The “Efficacy (%)” value (class symbols) is listed as “†† (150 ≥ Efficacy (%) > 100)”. Compound `COc1ccc(F)c(N2CCC(c3oc4cc(C(C)CC(=O)O)ccc4c3-c3cccc(C(C)(C)C)c3)CC2)c1` (centres unmarked) [Compound 232] showed an EC50 of 100 to 500 nM. For the same compound, the “Efficacy (%)” value (class symbols) is reported as “† (100 ≥ Efficacy (%) > 50)”. With `COc1cccc(N2CCC(c3oc4cc([C@@H](CC(=O)O)C5CC5)ccc4c3-c3ccc4c(c3)C3(CCCCC3)c3ccccc3-4)CC2)c1` [Compound 81], the EC50 was in the range of 100 to 500 nM. Moreover, the “Efficacy (%)” value (class symbols) is listed as “† (100 ≥ Efficacy (%) > 50)”. As to `COc1cccc(N2CCC(c3oc4cc([C@@H](CC(=O)O)C5CC5)ccc4c3C(CCC(C)C)c3ccccc3)CC2)c1` (some centres unmarked) [Compound 387], the EC50 fell in the range of 10 to 100 nM. In addition, the “Efficacy (%)” value (class symbols) is given as “†† (150 ≥ Efficacy (%) > 100)”. In the same order, the values of `CC(C)(C)c1nnc(-c2c(C3CCN(c4ccc5c(c4)OCO5)CC3)oc3cc([C@@H](CC(=O)O)C4CC4)ccc23)o1` [Compound 143] are 10 to 100 nM and “†† (150 ≥ Efficacy (%) > 100)”. With `COc1ccc(F)c(N2CCC(c3oc4cc(C(CC(=O)O)C5CC5)ccc4c3C(=O)Nc3ccccc3C)CC2)c1` (centres unmarked) [Compound 319], the EC50 was in the range of 100 to 500 nM. Also, where the note is “class symbols”, the “Efficacy (%)” value is given as “†† (150 ≥ Efficacy (%) > 100)”. Turning to `COc1cccc(N2CCC(c3oc4cc([C@@H](CC(=O)O)C5CC5)ccc4c3C(=O)Nc3cc(C(F)(F)F)ccc3F)CC2)c1` [Compound 261], the EC50 is not above 10 nM. Moreover, the “Efficacy (%)” value (class symbols) is listed as “††† (Efficacy (%) > 150)”.
